Experimental data published in ChEMBL document CHEMBL1148644, “Human PEPT1 pharmacophore distinguishes between dipeptide transport and binding” (J Med Chem, 2006).
Where a SMILES comes first, the peptide text is derived from it. [ ]: non-standard residue; d: D form. Tic = O=C(O)[C@@H]1Cc2ccccc2CN1; Sar = CNCC(=O)O

Tests used:
[1] = target: T1, Solute carrier family 15 member 1 (Homo sapiens, UniProt P46059); assay: Binding affinity to human PEPT1 assessed as inhibition of [14C]Gly-Sar uptake in MDCK cells; format: functional, cell-based
T1 sequence (P46059 whole entry): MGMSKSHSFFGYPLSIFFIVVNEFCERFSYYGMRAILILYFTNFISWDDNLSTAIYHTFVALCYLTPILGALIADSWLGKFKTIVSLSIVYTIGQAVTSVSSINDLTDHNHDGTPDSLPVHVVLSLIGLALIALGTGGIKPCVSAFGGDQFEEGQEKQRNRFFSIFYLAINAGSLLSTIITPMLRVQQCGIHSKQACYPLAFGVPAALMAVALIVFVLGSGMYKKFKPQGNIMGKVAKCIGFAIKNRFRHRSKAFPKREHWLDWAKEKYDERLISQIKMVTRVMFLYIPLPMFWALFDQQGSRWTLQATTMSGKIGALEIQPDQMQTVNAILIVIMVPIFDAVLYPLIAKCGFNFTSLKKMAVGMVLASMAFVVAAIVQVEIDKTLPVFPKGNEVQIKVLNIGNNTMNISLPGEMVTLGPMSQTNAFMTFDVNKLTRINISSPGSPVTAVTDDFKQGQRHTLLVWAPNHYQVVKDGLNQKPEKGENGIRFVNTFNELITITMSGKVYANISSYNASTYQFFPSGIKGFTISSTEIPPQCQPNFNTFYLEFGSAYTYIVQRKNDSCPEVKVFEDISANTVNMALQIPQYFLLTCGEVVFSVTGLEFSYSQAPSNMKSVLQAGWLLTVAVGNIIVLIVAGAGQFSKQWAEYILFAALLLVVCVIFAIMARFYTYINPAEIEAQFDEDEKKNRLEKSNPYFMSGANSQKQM

[2] = target: T1, Solute carrier family 15 member 1; assay: Activation of human PEPT1 expressed in MDCK cells; format: functional, cell-based

IC50 ([1]; read-out: IC50) [µM]	EC50 [2] [µM]	IC50 ([1]; mdck)	Compound
330	130	–	NCC(=O)N1CCC[C@H]1C(=O)O [GLYCYL PROLINE] (H-Gly-Pro-OH)
1310	470	–	N[C@@H](CC(=O)O)C(=O)N[C@@H](Cc1c[nH]c2ccccc12)C(=O)O (H-Asp-Trp-OH)
150	100	–	NC(=O)CC[C@H](NC(=O)[C@@H](N)CCC(N)=O)C(=O)O (H-Gln-Gln-OH)
> 16000	–	–	NCCCC[C@H](NC(=O)[C@@H]1CCCN1)C(=O)O (H-Pro-Lys-OH)
1250	750	–	NCCCC[C@H](NC(=O)CN)C(=O)O (H-Gly-Lys-OH)
820	530	–	NCCCC[C@H](N)C(=O)N[C@@H](CCC(=O)O)C(=O)O (H-Lys-Glu-OH)
510	420	–	NC(=O)CC[C@H](N)C(=O)N[C@@H](CCC(=O)O)C(=O)O (H-Gln-Glu-OH)
170	80	–	CC(C)C[C@H](NC(=O)[C@@H](N)CC(C)C)C(=O)O [LEU-LEU]
250	–	–	N[C@@H](Cc1c[nH]c2ccccc12)C(=O)N[C@@H](Cc1c[nH]c2ccccc12)C(=O)O (H-Trp-Trp-OH)
–	–	Not Active	NCC(=O)N[C@@H](Cc1ccccc1)C(N)=O (H-Gly-Phe-NH2)
90	50	–	CC(C)[C@H](NC(=O)[C@@H](N)Cc1c[nH]c2ccccc12)C(=O)O (H-Trp-Val-OH)
810	440	–	N[C@@H](CC(=O)O)C(=O)NCC(=O)O (H-Asp-Gly-OH)
250	80	–	C[C@H](N)C(=O)N[C@@H](C)C(=O)O (H-Ala-Ala-OH)
–	–	Not Active	NCC(=O)N[C@@H](Cc1ccc(O)cc1)C(N)=O (H-Gly-Tyr-NH2)
230	210	–	CC(C)[C@H](N)C(=O)N[C@H](C(=O)N[C@H](C(=O)O)C(C)C)C(C)C (H-Val-Val-Val-OH)
630	990	–	N[C@@H](CC(=O)O)C(=O)N[C@@H](CC(=O)O)C(=O)O (H-Asp-Asp-OH)
60	60	–	N[C@@H](Cc1ccc(O)cc1)C(=O)N[C@@H](Cc1ccc(O)cc1)C(=O)O (H-Tyr-Tyr-OH)

IC50 ([1]; read-out: IC50) [µM]	EC50 [2] [µM]	IC50 ([1]; mdck)	Compound
210	70	–	CC(C)[C@H](N)C(=O)N[C@H](C(=O)O)C(C)C [VAL-VAL] (H-Val-Val-OH)
80	–	–	N[C@@H](Cc1c[nH]c2ccccc12)C(=O)N[C@@H](Cc1ccc(O)cc1)C(=O)O (H-Trp-Tyr-OH)
720	310	–	NCCCC[C@H](NC(=O)[C@@H](N)CCC(=O)O)C(=O)O (H-Glu-Lys-OH)
> 16000	–	–	O=C(O)CNC(=O)[C@@H]1CCCN1 (H-Pro-Gly-OH)
980	280	–	CC(C)C[C@H](NC(=O)CN)C(=O)N[C@@H](Cc1ccccc1)C(=O)O (H-Gly-Leu-Phe-OH)
660	–	–	NCCCC[C@H](N)C(=O)N[C@@H](Cc1c[nH]c2ccccc12)C(=O)O (H-Lys-Trp-OH)
110	100	–	C[C@H](NC(=O)[C@@H](N)Cc1ccc(O)cc1)C(=O)O
260	80	–	C[C@H](N)C(=O)N[C@@H](Cc1c[nH]c2ccccc12)C(=O)O (H-Ala-Trp-OH)
1070	580	–	NCC(=O)NCC(=O)NCC(=O)O
380	550	–	NCC(=O)N[C@@H](CC(=O)O)C(=O)O (H-Gly-Asp-OH)
1160	540	–	CN(CC(=O)O)C(=O)CN [GLYCYLSARCOSINE] (H-Gly-[Sar]-OH)
7200	–	–	NCCCC[C@H](N)C(=O)N[C@@H](CCCN=C(N)N)C(=O)O (H-Lys-Arg-OH)
70	170	–	CC(C)C[C@H](NC(=O)CN)C(=O)O
950	190	–	N[C@@H](Cc1c[nH]cn1)C(=O)N[C@@H](Cc1c[nH]c2ccccc12)C(=O)O
170	110	–	N[C@@H](Cc1ccccc1)C(=O)NCC(=O)O (H-Phe-Gly-OH)
–	–	Not Active	NCC(=O)NCC(=O)NCC(=O)NCC(=O)O (H-GGGG-OH)
9110	–	–	NC(=O)[C@H](Cc1ccc(O)cc1)NC(=O)[C@@H](N)Cc1ccc(O)cc1 (H-Tyr-Tyr-NH2)

More lines, now with the values behind:

Compound	IC50 ([1]; read-out: IC50) [µM]	EC50 [2] [µM]	IC50 ([1]; mdck)
C[C@H](N)C(=O)N[C@@H](CC(=O)O)C(=O)O (H-Ala-Asp-OH)	450	230	–
N[C@@H](Cc1c[nH]c2ccccc12)C(=O)NCC(=O)O (H-Trp-Gly-OH)	730	260	–
C[C@H](N)C(=O)N[C@@H](Cc1ccccc1)C(=O)O	70	80	–
N[C@@H](Cc1ccc(O)cc1)C(=O)N[C@@H](Cc1c[nH]c2ccccc12)C(=O)O (H-Tyr-Trp-OH)	100	–	–
N[C@@H](CCC(=O)O)C(=O)NCC(=O)O (H-Glu-Gly-OH)	390	510	–
CC(C)[C@H](N)C(=O)N[C@@H](Cc1c[nH]c2ccccc12)C(=O)O [VALYLTRYPTOPHAN] (H-Val-Trp-OH)	100	40	–
NCC(=O)NCC(=O)O (H-Gly-Gly-OH)	820	480	–
O=C(O)CC[C@H](NC(=O)[C@@H]1CCCN1)C(=O)O (H-Pro-Glu-OH)	12300	> 5000	–
CC(C)C[C@H](NC(=O)CN)C(=O)NCC(=O)O (H-Gly-Leu-Gly-OH)	240	210	–
O=C(O)[C@H](CO)NC(=O)[C@@H]1CCCN1 (H-Pro-Ser-OH)	> 16000	1600	–
CC(=O)N[C@@H](Cc1ccccc1)C(=O)N[C@@H](Cc1ccc(O)cc1)C(N)=O (Ac-Phe-Tyr-NH2)	–	–	Not Active
NCC(=O)N[C@@H](Cc1ccc(O)cc1)C(=O)O (H-Gly-Tyr-OH)	120	140	–
NCC(=O)N[C@@H](Cc1ccccc1)C(=O)O (H-Gly-Phe-OH)	170	130	–
CC(C)[C@H](NC(=O)[C@@H](N)CC(=O)O)C(=O)O (H-Asp-Val-OH)	310	690	–
C[C@H](NC(=O)[C@@H](N)Cc1c[nH]c2ccccc12)C(=O)O (H-Trp-Ala-OH)	260	100	–
NCC(=O)NCC(=O)NCC(N)=O (H-Gly-Gly-Gly-NH2)	–	–	Not Active
NCCCC[C@H](NC(=O)[C@@H](N)CCCN=C(N)N)C(=O)O (H-Arg-Lys-OH)	8110	–	–
O=C(O)C[C@H](NC(=O)[C@@H]1CCCN1)C(=O)O (H-Pro-Asp-OH)	9160	> 5000	–
NC(=O)CNC(=O)[C@@H](N)Cc1ccc(O)cc1	–	–	Not Active
NCCC[C@H](NC(=O)[C@@H](N)CCCN)C(=O)O	–	–	Not Active
N[C@@H](Cc1c[nH]cn1)C(=O)NCC(=O)O (H-His-Gly-OH)	340	280	–
C[C@H](N)C(=O)N[C@@H](CCCCN)C(=O)O (H-Ala-Lys-OH)	280	220	–
N[C@@H](CCC(=O)O)C(=O)N[C@@H](CCC(=O)O)C(=O)O (H-Glu-Glu-OH)	620	1000	–
NC(=O)[C@@H]1Cc2ccccc2CN1C(=O)[C@@H](N)Cc1ccc(O)cc1 (H-Tyr-[Tic]-NH2)	–	–	Not Active
NCCCC[C@H](NC(=O)[C@@H](N)CCCCN)C(=O)O	10900	–	–
C[C@H](N)C(=O)N[C@@H](Cc1ccc(O)cc1)C(=O)O (H-Ala-Tyr-OH)	170	60	–
O=C(O)[C@@H]1CCCN1C(=O)[C@@H]1CCCN1 (H-Pro-Pro-OH)	800	700	–
NC(N)=NCCC[C@H](NC(=O)[C@@H](N)CCCN=C(N)N)C(=O)O (H-Arg-Arg-OH)	7310	–	–
